Measurements: patent US20220062371A1, “LIGAND-DRUG-CONJUGATES AS SUBSTRATES FOR SELECTIVE CLEAVAGE BY THE EXOPEPTIDASE ACTIVITY OF CATHEPSIN B” (DEBIOPHARM RESEARCH & MANUFACTURING S.A., priority 2017, published 2022)
Where two headings read alike, the source gives them in different places. Positions of bridges follow the written chain, without caps; N, C: chain ends. Non-standard residues stand in square brackets, D forms with d. Residues, ends and D or L forms follow the SMILES beside them. Groups on a side chain read outwards from the residue. Chains are numbered I, II in the order given. *: point of attachment. DM1Mal(CH2)2CO = COc1cc2cc(c1Cl)N(C)C(=O)C[C@H](OC(=O)[C@H](C)N(C)C(=O)CCSC1CC(=O)N(CCC(=O)*)C1=O)[C@]1(C)O[C@H]1[C@H](C)[C@@H]1C[C@@](O)(NC(=O)O1)[C@H](OC)/C=C/C=C(\C)C2; Camptothecin(20S-OCO) = CC[C@@]1(OC(=O)*)C(=O)OCc2c1cc1n(c2=O)Cc2cc3ccccc3nc2-1; X1 = CC[C@@]1(O*)C(=O)OCc2c1cc1n(c2=O)Cc2cc3ccccc3nc2-1; X2 = CC(=O)N[C@@H](CSC1CC(=O)N(CCC(=O)*)C1=O)C(=O)O; Dolaproine = CO[C@@H]([C@@H]1CCCN1)[C@@H](C)C(=O)O; Dil = CC[C@H](C)[C@H](NC)[C@@H](CC(=O)O)OC; NMe2Val = CC(C)[C@@H](C(=O)*)N(C)C; PEG5 = NCCOCCOCCOCCOCCOCCC(=O)O; Cit = NC(=O)NCCC[C@H](N)C(=O)O; PEG4 = NCCOCCOCCOCCOCCC(=O)O; Dab = NCC[C@H](N)C(=O)O; Dap = NC[C@H](N)C(=O)O; Sar = CNCC(=O)O

Biological target: T1, recombinant human Cathepsin B (Homo sapiens, UniProt P07858)
T1 construct: purchased R&D Systems (Bio-Techne AG) 953-CY-010
Assay: Recombinant human Cathepsin B-induced cleavage (in vitro enzymatic cleavage assay, UHPLC-MS/MS)
Type: biochemical
Conditions: for half-life at 10 μM: human; for Ratio (T1/2 Compound/T1/2 Reference): reference Cys-MC-Val-Cit-PABC-MMAF; for cleavage rate compared to reference PABC compound (times faster): versus Cys-MC-Val-Cit-PABC-MMAF
Procedure: Cat B-induced cleavage of the compounds of the present invention was evaluated according to the in vitro enzymatic cleavage assay using recombinant human Cathepsin B and UHPLC-MS/MS analysis as described below.
Reference compounds Cys-MC-Val-Cit-PABC-MMAF and MMAF were used as positive controls.
The in vitro enzymatic assay was conducted at 37° C. with the test compounds at a concentration of 10 μM (2.5 μM when the test compound is an antibody-drug conjugate) in the presence of activated recombinant human Cathepsin B enzyme at 2 μg/mL in a 25 mM MES buffer pH 5.0. The enzymatic cleavage reaction was stopped for each defined time point by mixing an equal volume of acetonitrile+0.1% FA containing an internal standard (warfarine at 8 μM).
Analysis was conducted using a Waters Acquity UPLC System coupled to a Waters Xevo TQ triple quad mass spectrometer. UHPLC was conducted depending on the test compounds with a BEH C8 1.7 μm 100×2.1 mm or BEH C18 1.7 μm 50×2.1 mm or HSS T3 1.7 μm 50×2.1 mm columns heated at 45° C. or 50° C. and fitted with 2 μm insert filter pre-columns (available from Waters), and solvent systems A1 (H2O+0.1% FA) and B1 (acetonitrile+0.1% FA) at a flow rate of 0.6 mL/min and a 10-95% gradient of B1 over 1.9 min.
MS/MS was performed using electrospray ionization (ESI) interface in positive mode and specific MRM transitions for each tested compound.

[1] = pH 5, 10 μM test compound, Cathepsin B 2 μg/mL, 25 mM MES buffer pH 5.0, 37° C., read-out: T1/2 Compound
[2] = pH 5, text and figure legends, 10 μM test compound, read-out: t1/2 (Exo-Cat B-induced drug release study)
[3] = 10 μM test compound, Cathepsin B 2 μg/mL, 25 mM MES buffer pH 5.0, 37° C., read-out: T1/2 Compound

| SMILES | half-life at 10 μM [1] [min] | Ratio (T1/2 Compound/T1/2 Reference) | Cat B-induced cleavage, in words | half-life at 10 μM [2] [min] | cleavage rate compared to reference PABC compound (times faster) [fold] | half-life at 10 μM [3] [min] |
| --- | --- | --- | --- | --- | --- | --- |
| CC[C@H](C)[C@@H]([C@@H](CC(=O)N1CCC[C@H]1[C@H](OC)[C@@H](C)C(=O)N[C@@H](Cc1ccccc1)C(=O)N[C@@H](CCCNC(=N)N)C(=O)N[C@@H](CCCCNC(=O)CCOCCOCCOCCOCCOCCNC(=O)CCN1C(=O)CC(SC[C@H](NC(C)=O)C(=O)O)C1=O)C(=O)N[C@@H](Cc1ccccc1)C(=O)O)OC)N(C)C(=O)[C@@H](NC(=O)[C@H](C(C)C)N(C)C)C(C)C (stereo partly drawn) [Compound 1, AF-Arg-Lys(PEG4-Mal-Cys-Ac)-Phe-OH] (NMe2Val-V[Dil][Dolaproine]FRK([PEG5-X2])F-OH) | 1.5 | 0.12 | – | – | – | – |
| CC[C@H](C)[C@@H]([C@@H](CC(=O)N1CCC[C@H]1[C@H](OC)[C@@H](C)C(=O)N[C@@H](Cc1ccccc1)C(=O)N[C@@H](CCCNC(=N)N)C(=O)N[C@@H](Cc1ccccc1)C(=O)N[C@@H](CCCCNC(=O)CCOCCOCCOCCOCCNC(=O)CCN1C(=O)CC(SC[C@H](NC(C)=O)C(=O)O)C1=O)C(=O)O)OC)N(C)C(=O)[C@@H](NC(=O)[C@H](C(C)C)N(C)C)C(C)C (stereo partly drawn) [Compound 3, AF-Arg-Phe-Lys(PEG4-Mal-Cys-Ac)-OH] (NMe2Val-V[Dil][Dolaproine]FRFK([PEG4-X2])-OH) | 1.4 | 0.11 | – | – | – | – |
| CC[C@@]1(OC(=O)CN(C)C(=O)CC[C@H](NC(=O)[C@H](CCCNC(=N)N)NC(=O)[C@H](Cc2ccccc2)NC(=O)CCOCCOCCOCCOCCOCCNC(=O)[C@@H](N)CCCNC(=N)N)C(=O)N[C@@H](Cc2ccccc2)C(=O)O)C(=O)OCc2c1cc1n(c2=O)Cc2cc3ccccc3nc2-1 [Compound 8, Arg-PEG4-Phe-Arg-Glu(Sar-OCPT)-Phe-OH] (H-R[PEG5]FRE([Sar-X1])F-OH; N-terminus assumed) | 2.2 | 0.19 | rapidly cleaved | – | – | – |
| CC[C@@]1(OC(=O)NC[C@H](NC(=O)[C@H](CCCNC(=N)N)NC(=O)[C@H](Cc2ccccc2)NC(=O)CCOCCOCCOCCOCCOCCNC(=O)[C@@H](N)CCCNC(=N)N)C(=O)N[C@@H](Cc2ccccc2)C(=O)O)C(=O)OCc2c1cc1n(c2=O)Cc2cc3ccccc3nc2-1 [Compound 9, Arg-PEG4-Phe-Arg-Dap(CO-CPT)-Phe-OH] (H-R[PEG5]FR[Dap](Camptothecin(20S-OCO))F-OH; N-terminus assumed) | 4.5 | 0.63 | – | – | – | – |
| CC[C@@]1(OC(=O)NCC[C@H](NC(=O)[C@H](CCCNC(=N)N)NC(=O)[C@H](Cc2ccccc2)NC(=O)CCOCCOCCOCCOCCOCCNC(=O)[C@@H](N)CCCNC(=N)N)C(=O)N[C@@H](Cc2ccccc2)C(=O)O)C(=O)OCc2c1cc1n(c2=O)Cc2cc3ccccc3nc2-1 [Compound 10, Arg-PEG4-Phe-Arg-Dab(CO-CPT)-Phe-OH] (H-R[PEG5]FR[Dab](Camptothecin(20S-OCO))F-OH; N-terminus assumed) | 0.9 | 0.1 | – | – | – | – |
| CC[C@@]1(OC(=O)OC[C@H](NC(=O)[C@H](CCCNC(=N)N)NC(=O)[C@H](Cc2ccccc2)NC(=O)CCOCCOCCOCCOCCOCCNC(=O)[C@@H](N)CCCNC(=N)N)C(=O)N[C@@H](Cc2ccccc2)C(=O)O)C(=O)OCc2c1cc1n(c2=O)Cc2cc3ccccc3nc2-1 [Compound 11, Arg-PEG4-Phe-Arg-Ser(CO-CPT)-Phe-OH] (H-R[PEG5]FRS(Camptothecin(20S-OCO))F-OH; N-terminus assumed) | 2.2 | 0.2 | – | – | – | – |
| COc1cc2cc(c1Cl)N(C)C(=O)C[C@H](OC(=O)[C@H](C)N(C)C(=O)CCSC1CC(=O)N(CCC(=O)NCCCC[C@H](NC(=O)[C@H](CCCCN)NC(=O)[C@H](Cc3ccccc3)NC(=O)CCOCCOCCOCCOCCNC(=O)CCN3C(=O)CC(SC[C@H](NC(C)=O)C(=O)O)C3=O)C(=O)N[C@@H](Cc3ccccc3)C(=O)O)C1=O)[C@]1(C)O[C@H]1[C@H](C)[C@@H]1C[C@@](O)(NC(=O)O1)[C@H](OC)/C=C/C=C(\C)C2 (stereo partly drawn) [Compound 12, Ac-Cys-Mal-PEG4-Phe-Lys-Lys(Mal-DM1)-Phe-OH] ({X2-PEG4}-FKK(DM1Mal(CH2)2CO)F-OH) | 1.5 | – | – | 1.53 | – | – |
| CC[C@H](C)[C@@H]([C@@H](CC(=O)N1CCC[C@H]1[C@H](OC)[C@@H](C)C(=O)N[C@@H](Cc1ccccc1)C(=O)NCCCC[C@H](NC(=O)[C@H](CCCCN)NC(=O)[C@H](Cc1ccccc1)NC(=O)CCOCCOCCOCCOCCNC(=O)CCN1C(=O)CC(SC[C@H](NC(C)=O)C(=O)O)C1=O)C(=O)N[C@@H](Cc1ccccc1)C(=O)O)OC)N(C)C(=O)[C@@H](NC(=O)[C@H](C(C)C)N(C)C)C(C)C (stereo partly drawn) [Compound 13, Ac-Cys-Mal-PEG4-Phe-Lys-Lys(AF)-Phe-OH] (I: {X2-PEG4}-FKKF-OH / II: NMe2Val-V[Dil][Dolaproine]F; amide I:3-II:C) | 1.6 | 0.15 | – | 1.62 | – | – |
| CC[C@H](C)[C@@H]([C@@H](CC(=O)N1CCC[C@H]1[C@H](OC)[C@@H](C)C(=O)N[C@@H](Cc1ccccc1)C(=O)N[C@@H](CCCNC(N)=O)C(=O)N[C@@H](CCCCNC(=O)CCOCCOCCOCCOCCNC(=O)CCN1C(=O)CC(SC[C@H](NC(C)=O)C(=O)O)C1=O)C(=O)N[C@@H](Cc1ccccc1)C(=O)O)OC)N(C)C(=O)[C@@H](NC(=O)[C@H](C(C)C)N(C)C)C(C)C (stereo partly drawn) [Compound 19, AF-Cit-Lys(PEG4-Mal-Cys-Ac)-Phe-OH] (NMe2Val-V[Dil][Dolaproine]F[Cit]K([PEG4-X2])F-OH) | 1.1 | 0.09 | – | – | – | – |
| COc1cc2cc(c1Cl)N(C)C(=O)C[C@H](OC(=O)[C@H](C)N(C)C(=O)CCSC1CC(=O)N(C[C@H]3CC[C@H](C(=O)NCCCC[C@H](NC(=O)[C@H](CCCNC(N)=O)NC(=O)[C@H](Cc4ccccc4)NC(=O)CCOCCOCCOCCOCCOCCNC(=O)CN4C(=O)CC(SC[C@H](NC(C)=O)C(=O)O)C4=O)C(=O)N[C@@H](Cc4ccc(O)cc4)C(=O)O)CC3)C1=O)[C@]1(C)O[C@H]1[C@H](C)[C@@H]1C[C@@](O)(NC(=O)O1)[C@H](OC)/C=C/C=C(\C)C2 (stereo partly drawn) [Compound 27, Ac-Cys-Ma-PEG5-Phe-Cit-Lys(Mcc-DM1)-Tyr-OH] | 0.06 | 0.005 | – | – | ~2300 | – |
| COc1cc2cc(c1Cl)N(C)C(=O)C[C@H](OC(=O)[C@H](C)N(C)C(=O)CCSC1CC(=O)N(CCC(=O)NCCCC[C@H](NC(=O)[C@H](CCCCN)NC(=O)[C@H](Cc3ccccc3)NC(=O)CCOCCOCCOCCOCCNC(=O)CCN3C(=O)CC(SC[C@H](NC(C)=O)C(=O)O)C3=O)C(=O)N[C@@H](Cc3ccccc3)C(=O)N[C@@H](Cc3ccccc3)C(=O)N[C@@H](CCCCN)C(=O)O)C1=O)[C@]1(C)O[C@H]1[C@H](C)[C@@H]1C[C@@](O)(NC(=O)O1)[C@H](OC)/C=C/C=C(\C)C2 (stereo partly drawn) [Compound 28, Ac-Cys-Mal-PEG4-Phe-Lys-Lys(Mal-DM1)-Phe-Phe-Lys-OH] ({X2-PEG4}-FKK(DM1Mal(CH2)2CO)FFK-OH) | – | – | – | – | – | 0.3 |
| COc1cc2cc(c1Cl)N(C)C(=O)C[C@H](OC(=O)[C@H](C)N(C)C(=O)CCSC1CC(=O)N(CCC(=O)NCCCC[C@H](NC(=O)[C@H](CCCCN)NC(=O)[C@H](Cc3ccccc3)NC(=O)[C@H](Cc3ccccc3)NC(=O)[C@H](CCCCNC(=O)CCN3C(=O)CC(SCCC(=O)N(C)[C@@H](C)C(=O)O[C@H]4CC(=O)N(C)c5cc(cc(OC)c5Cl)C/C(C)=C/C=C/[C@@H](OC)[C@@]5(O)C[C@H](OC(=O)N5)[C@@H](C)[C@@H]5O[C@@]45C)C3=O)NC(=O)[C@H](CCCCN)NC(=O)[C@H](Cc3ccccc3)NC(=O)CCOCCOCCOCCOCCNC(=O)CCN3C(=O)CC(SC[C@H](NC(C)=O)C(=O)O)C3=O)C(=O)N[C@@H](Cc3ccccc3)C(=O)O)C1=O)[C@]1(C)O[C@H]1[C@H](C)[C@@H]1C[C@@](O)(NC(=O)O1)[C@H](OC)/C=C/C=C(\C)C2 (stereo partly drawn) [Compound 29, Ac-Cys-Mal-PEG4-[Phe-Lys-Lys(Mal-DM1)-Phe]2-OH] ({X2-PEG4}-FKK(DM1Mal(CH2)2CO)FFKK(DM1Mal(CH2)2CO)F-OH) | – | 0.23 | – | – | ~5 | 2.4 |
